Results as given in patent publication US11129782B2, “Derivatives of PPD useful for coloring hair and skin” (National University of Singapore, priority 2017, dated 2021).

Legend:
IL-8 = IL-8 ELISA on THP-1 cell supernatants; assay type: cell-based, human; settings: preliminary ELISA, CV75
Experimental: (§1) For cytokine profiling in THP-1, supernatants from wells were collected and then used for cytokine analysis by a Chemokine immunosorbent assay Bio-legend ELISA Max kit. The levels of available IL-8 protein from THP-1 cell supernatants was estimated using this kit which are regulated upon activation of THP-1 model. Surface receptor expression of human CD-86, CD-54, MHC-I and IL-T3 were analyzed by flow cytometry using standard BD FACS analyzer with PE and FITC fluorescent labeled antibodies from Biolegend and e Bioscience.
(§2) In order to understand the effect of modified PPD hairdyes on THP-1 immune sensitization, a certain degree of Cytotoxicity at CV75% viable where 25% cell death is required before evaluation of supernatants in THP-1 models for expression of cytokine IL-8 and receptor expression of CD86, CD54, MHC-I and IL-T3 surface receptors upon treatment with standard PPD and modified hair dye compounds. Most allergens show a specific dose-dependent alteration of CD86 and/or CD54 expression or secretion of cytokine profiles. But depending on chemical, the alteration pattern may vary.

HaCaT cells = experiment: In vitro cell cytotoxicity (MTT) assay on HaCaT cells; assay type: cell-based, human; settings: for IC50: 72 h incubation, MTT
Summary of the method: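 HaCaT keratinocytes seeded at 5×10^3/well, after 24 h exposed 72 h to test compounds serially diluted from 500 μM to 1.9 μM in 10% FBS DMEM. MTT (1 mg/ml, 4 h) read at 570 nm; viability expressed as percent of untreated control.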

[1] = system: cysteine and lysine peptides
Experimental: Direct reactivity of test chemical to lysine-based synthetic peptide was determined in reactions containing 100 mM ammonium acetate buffer (pH 10.2). The final concentration of lysine peptide was 20 μM in a final reaction volume of 0.3 ml. Direct reactivity of test chemicals to cysteine-based synthetic peptide was determined in 100 mM Sodium Phosphate buffer of pH 7.5.
For the DPRA, incubation mixtures were prepared using each peptide to test compound ratios of both 1:10 for cysteine peptide and 1:50 for lysine peptide, according to Table 19. […] Sample reactions were initiated by adding 3 μl of a test chemical stock solution for cysteine and 15 μl stock solution for lysine peptide. These mixtures were then placed in a temperature-controlled shaking incubator at 25° C.
At each time point (20 mins/24 hours), the incubation mixtures were quenched with 75 μL of 95% ACN/H2O, and mildly vortexed (600 rpm, 3 seconds). For Lysine DPRA experiment, 10 μl of aliquot was diluted with 2% ACN/H2O, vortexed and stored at −80° C. until analysis by LC-MS/MS. For cysteine DPRA, an additional step was performed. 10 μl of cysteine reaction mixture, at time points 20 min and 24 h were diluted in 180 μl of 2% ACN/H2O. To which, a 10 μl aliquot of a 16 mM dithiothreitol solution (prepared in water) was then added, and samples were heated in a 45° C. oven for 30 min, then allowed to cool to room temperature prior to analysis. The peptide depletion (PD) percentage was obtained using this equation.

[2] = Skin permeation in vertical Franz diffusion cells; assay type: in vitro ADME, porcine; settings: 8 h; for % Parent compound Penetrated (mean) / % converted to metabolite (mean) / recovery at 8 h, 1 % w/v: 1% W/V applied; for recovery at 8 h, 1 % w/v: pig, read-out: % Parent compound Recovery (mean); for Penetration profile PPD vs derivatives (times less than PPD): ratio of PPD penetration to that of the compound
Experimental: Porcine ears were generously provided by the NUS Department of Surgery. The ears were frozen at −80° C. until use (up to 3 months) and thawed at room temperature on the day preceding the experiment. Prior to the experiment, the skin was separated from the cartilage and dermatomed to a thickness of ˜1.0 mm using an Acculan™ 3Ti dermatome (Aesculap, Inc., B. Braun, USA).
The PPD and derivatives were dissolved in deionized water at 1% w/v. The PPD and PPD derivatives 1-5 solutions were purged with argon gas to minimize oxidation of the donor solution.
Skin penetration studies were carried out using vertical Franz diffusion cells (PermeGear, USA) immersed in a 37° C. water bath. The donor and receptor volumes were 900 µL and 5 mL, respectively; the mean surface area of penetration was 0.64 cm^2. Upon insertion of the skin pieces into the Franz cells, the skin was equilibrated for 45 min with PBS in the receptor compartment. After equilibration, the skin's trans-epidermal water loss (TEWL) was measured using an Aquaflux AF300 (Biox, UK) to assess the integrity of the skin's stratum corneum barrier. The donor solution, consisting of PPD or derivative 1-5 (n=3 Franz cells each), was then added to the donor compartment and the penetration experiments were conducted for 8 h. The receptor solutions were continuously stirred with magnetic stirrers. At fixed time points, aliquots of 200 μL were taken from the receptor solution of each cell and the receptor solution topped up with 200 μL of fresh PBS. At the end of the experiment, the donor and receptor solutions were removed and the cells dismantled. For the purpose of mass balance on the PPD, PPD derivatives 1-5 the skin pieces and swabs of their outer surfaces were collected and stored in acetonitrile for PPD or derivative 1-5 extraction. The donor solution as well as PBS used to thoroughly wash each part of the Franz cells were also collected.
PPD, PPD derivatives 1-5 and metabolite concentrations in all permeation and mass balance samples were measured by LCMS. PPD steady state fluxes and permeability coefficients were calculated by fitting the solution to Fick's second law of diffusion at the steady state to the linear part of each experimental cumulative amount curve.
The validated method LCMS was applied to quantify PPD, PPD derivative 1-5 and metabolites from skin permeation study samples. FIGS. 3 and 4 show LCMS spectra for the identification of PPD and PPD derivatives 1 and 2 and metabolites from skin permeation study experiment.

CD54 = CD54 surface expression on THP-1 by flow cytometry; assay type: cell-based, human
Experimental: as §1, §2

CD86 = CD86 surface expression on THP-1 by flow cytometry; assay type: cell-based, human
Experimental: as §1, §2

ILT3 = ILT3 surface expression on THP-1 by flow cytometry; assay type: cell-based, human; settings: in comparison to DCNB
Experimental: as §1, §2

Compound	IL-8 expression (IL-8)	IC50 (HaCaT cells)	Sensitizing potential predicted from mean peptide depletion [1]	% Parent compound Penetrated (mean) [2]	% converted to metabolite (mean) [2]	Permeation less than PPD [2]	recovery at 8 h, 1 % w/v [2]	Penetration profile PPD vs derivatives (times less than PPD) [2]	Improvement of cell viability in comparison to PPD 4 (HaCaT cells)	IC50 (HaCaT cells; Homo sapiens, HaCaT, 72 h)	Expression of CD54 (CD54)	Expression of CD86 (CD86)	ILT3 (inhibitory receptor) expression (ILT3)
Nc1ccc(Nc2ccc(Nc3ccc(Nc4ccc(N)cc4)cc3)cc2)cc1 [PPD derivative 8, 4,4′-Bis[(4-aminophenyl)amino]diphenylamine]	increased expression	6.92 µM	high sensitizing agents										
CCCCCCOC(=O)c1cc(N)ccc1N [PPD derivative 15, Hexyl-2,5-diaminobenzoate]	do not stimulate IL-8 expression			0.0001%	0.0108%	about 2 order of magnitude	96.7%	1620	about 5 times	160 µM	not stimulated	not stimulated	increased
CCCCCCOC(=O)c1cc(Nc2ccc(N)cc2)ccc1N [PPD derivative 6, hexyl 2-amino-5-((4-aminophenyl)amino)benzoate]	do not stimulate IL-8 expression			0.00015%	0.01%	about 2 order of magnitude	95.4%	1080		10.5 µM	not stimulated	not stimulated	increased
